Active and inactive are the calls of the source. No cut-off for these calls is given here.
Columns and labels:
[1] = target: T1, Signal transducer and activator of transcription 3 (Homo sapiens, UniProt P40763); test: Inhibition of STAT3 in human BXPC-3 cells assessed as inhibition of IL-6 stimulated STAT3 nuclear translocation by immunofluorescent assay; assay type: cell-based
[2] = Microsomal stability in rat liver microsomes assessed as half life incubated upto 40 mins in presence of NADPH by LC-MS/MS analysis; assay type: ADME, Microsome
Cytochrome P450 2C9 = Cytochrome P450 2C9 (Homo sapiens, UniProt P11712); test: Inhibition of CYP2C9 in human liver microsomes using tolbutamide as substrate incubated for 60 mins in presence of NADPH by HPLC analysis; assay type: ADME, Microsome
[3] = target: Mitogen-activated protein kinase 8 (Homo sapiens, UniProt P45983); test: Inhibition of JNK1 (unknown origin)
[4] = MRT (0 to last) in BALB/c mouse at 1 mg/kg,iv measured upto 24 hrs by LC-MS/MS analysis; assay type: ADME, organism-based; conditions: BALB/c, in vivo
[5] = Microsomal stability in rat liver microsomes assessed as intrinsic clearance incubated upto 40 mins in presence of NADPH by LC-MS/MS analysis; assay type: ADME, Microsome; conditions: read-out: CLH
Mus musculus [6] = test: In vivo inhibition of STAT3 in BALB/c mouse xenografted with human BXPC-3 cells assessed as inhibition of STAT3 phosphorylation at Ser 727 at 30 mg/kg,po administrated once daily for 8 weeks by immunohistochemical analysis; assay type: functional, organism-based
Mus musculus [7] = test: In vivo inhibition of STAT3 in BALB/c mouse xenografted with human BXPC-3 cells assessed as inhibition of STAT3 phosphorylation at Ser 727 at 10 mg/kg,po administrated once daily for 8 weeks by immunohistochemical analysis; assay type: functional, organism-based
[8] = target: T1, Signal transducer and activator of transcription 3; test: Inhibition of STAT3 in human Capan-2 cells assessed as reduction of c-Myc expression at 1 to 30 nM incubated for 22 to 24 hrs by western blot analysis; assay type: cell-based; conditions: dose 1-30 nM, time 22-24 hrs, DDE = dose-dependent effect
[9] = Toxicity in BALB/c mouse xenografted with human BXPC-3 cells assessed as effect on lung at 10 mg/kg,po administrated once daily for 8 weeks by H and E staining based microscopic analysis; assay type: organism-based; conditions: in vivo, 1344 h
[10] = target: T1, Signal transducer and activator of transcription 3; test: Inhibition of STAT3 in human BXPC-3 cells assessed as reduction of Cyclin D1 expression at 30 nM incubated for 4 to 24 hrs by western blot analysis; assay type: cell-based; conditions: time 4-24 hrs, TDE = time-dependent effect
[11] = target: T2, Mitogen-activated protein kinase 13 (Homo sapiens, UniProt O15264); test: Inhibition of p38delta (unknown origin)
T2 sequence (O15264 whole entry): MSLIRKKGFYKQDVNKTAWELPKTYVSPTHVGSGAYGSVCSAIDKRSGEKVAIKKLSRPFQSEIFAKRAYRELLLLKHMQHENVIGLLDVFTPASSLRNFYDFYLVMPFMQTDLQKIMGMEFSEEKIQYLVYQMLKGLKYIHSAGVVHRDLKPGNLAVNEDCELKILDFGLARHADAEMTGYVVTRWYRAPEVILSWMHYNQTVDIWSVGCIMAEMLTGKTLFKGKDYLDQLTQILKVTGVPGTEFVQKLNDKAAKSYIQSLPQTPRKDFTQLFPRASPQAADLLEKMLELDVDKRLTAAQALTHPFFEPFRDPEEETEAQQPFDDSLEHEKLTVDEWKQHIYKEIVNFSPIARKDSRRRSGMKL

BXPC-3 [12] = test: Antitumor activity against human BXPC-3 cells xenografted BALB/c mouse model assessed as reduction in Ki67 expression at 10 mg/kg,po administrated once daily for 8 weeks by immunohistochemical analysis; assay type: functional, organism-based
CFPAC-1 [13] = test: Inhibition of mitochondrial respiration in human CFPAC-1 cells assessed as reduction in maximal respiration rate at 1 to 30 nM incubated for 1 hr by seahorse XF96 flux analyzer; assay type: functional, cell-based; conditions: dose 1-30 nM, DDE = dose-dependent effect
[14] = target: T1, Signal transducer and activator of transcription 3; test: Inhibition of STAT3 in human BXPC-3 cells assessed as inhibition of STAT3 phosphorylation at Tyr 705 at 1 to 30 nM incubated for 22 to 24 hrs by western blot analysis; assay type: cell-based; conditions: dose 1-30 nM, time 22-24 hrs, DDE = dose-dependent effect
BXPC-3 [15] = test: Inhibition of colony formation in human BXPC-3 cells at 3 to 10 nM incubated for 5 to 7 days by crystal violet staining assay; assay type: functional, cell-based; conditions: dose 3-10 nM, time 5-7 day, DDE = dose-dependent effect
Mus musculus [16] = test: In vivo inhibition of STAT3 in BALB/c mouse xenografted with human BXPC-3 cells assessed as inhibition of STAT3 phosphorylation at Tyr 705 at 30 mg/kg,po administrated once daily for 8 weeks by immunohistochemical analysis; assay type: functional, organism-based
[17] = Toxicity in BALB/c mouse xenografted with human BXPC-3 cells assessed as effect on spleen at 30 mg/kg,po administrated once daily for 8 weeks by H and E staining based microscopic analysis; assay type: organism-based; conditions: in vivo, 1344 h
[18] = Toxicity in BALB/c mouse xenografted with human BXPC-3 cells assessed as effect on heart at 10 mg/kg,po administrated once daily for 8 weeks by H and E staining based microscopic analysis; assay type: organism-based; conditions: in vivo, 1344 h
CFPAC-1 [19] = test: Inhibition of mitochondrial respiration in human CFPAC-1 cells assessed as reduction in oxygen consumption rate at 1 to 30 nM incubated for 1 hr by seahorse XF96 flux analyzer; assay type: functional, cell-based; conditions: dose 1-30 nM, DDE = dose-dependent effect
[20] = Toxicity in BALB/c mouse xenografted with human BXPC-3 cells assessed as effect on liver at 10 mg/kg,po administrated once daily for 8 weeks by H and E staining based microscopic analysis; assay type: organism-based; conditions: in vivo, 1344 h
[21] = target: Tyrosine-protein kinase JAK1 (Homo sapiens, UniProt P23458); test: Inhibition of JAK1 (unknown origin)
[22] = Microsomal stability in dog liver microsomes assessed as half life incubated upto 40 mins in presence of NADPH by LC-MS/MS analysis; assay type: ADME, Canis lupus familiaris, Microsome
[23] = target: T1, Signal transducer and activator of transcription 3; test: Thermal stabilization of STAT3 in human BXPC-3 cells at 10 microM at 42.9 degreeC incubated for 1 hrs by cellular thermal shift assay; assay type: cell-based
[24] = Microsomal stability in human liver microsomes assessed as half life incubated upto 40 mins in presence of NADPH by LC-MS/MS analysis; assay type: ADME, Microsome
[25] = target: T1, Signal transducer and activator of transcription 3; test: Inhibition of STAT3 in human Capan-2 cells assessed as reduction of c-Myc expression at 30 nM incubated for 4 to 24 hrs by western blot analysis; assay type: cell-based; conditions: time 4-24 hrs, TDE = time-dependent effect
[26] = Oral bioavailability in BALB/c mouse at 10 mg/kg,po measured upto 24 hrs by LC-MS/MS analysis; assay type: ADME, organism-based; conditions: in vivo
[27] = Microsomal stability in rat liver microsomes assessed as compound remaining incubated for 60 mins in presence of NADPH by LC-MS/MS analysis; assay type: ADME, Microsome; conditions: read-out: Stability
[28] = AUC (0-infinity) in BALB/c mouse at 10 mg/kg,po measured upto 24 hrs by LC-MS/MS analysis; assay type: ADME, organism-based; parameters: time < 24 hrs, dose 10 mg/kg, route po; conditions: in vivo
[29] = Toxicity in BALB/c mouse xenografted with human BXPC-3 cells assessed as effect on spleen at 10 mg/kg,po administrated once daily for 8 weeks by H and E staining based microscopic analysis; assay type: organism-based; conditions: in vivo, 1344 h
[30] = target: T1, Signal transducer and activator of transcription 3; test: Inhibition of STAT3 in human BXPC-3 cells assessed as inhibition of IL-6 stimulated nuclear STAT3 phosphorylation at Tyr 705 at 1 to 30 nM by western blot assay; assay type: cell-based; conditions: dose 1-30 nM

T1 sequence (P40763 whole entry): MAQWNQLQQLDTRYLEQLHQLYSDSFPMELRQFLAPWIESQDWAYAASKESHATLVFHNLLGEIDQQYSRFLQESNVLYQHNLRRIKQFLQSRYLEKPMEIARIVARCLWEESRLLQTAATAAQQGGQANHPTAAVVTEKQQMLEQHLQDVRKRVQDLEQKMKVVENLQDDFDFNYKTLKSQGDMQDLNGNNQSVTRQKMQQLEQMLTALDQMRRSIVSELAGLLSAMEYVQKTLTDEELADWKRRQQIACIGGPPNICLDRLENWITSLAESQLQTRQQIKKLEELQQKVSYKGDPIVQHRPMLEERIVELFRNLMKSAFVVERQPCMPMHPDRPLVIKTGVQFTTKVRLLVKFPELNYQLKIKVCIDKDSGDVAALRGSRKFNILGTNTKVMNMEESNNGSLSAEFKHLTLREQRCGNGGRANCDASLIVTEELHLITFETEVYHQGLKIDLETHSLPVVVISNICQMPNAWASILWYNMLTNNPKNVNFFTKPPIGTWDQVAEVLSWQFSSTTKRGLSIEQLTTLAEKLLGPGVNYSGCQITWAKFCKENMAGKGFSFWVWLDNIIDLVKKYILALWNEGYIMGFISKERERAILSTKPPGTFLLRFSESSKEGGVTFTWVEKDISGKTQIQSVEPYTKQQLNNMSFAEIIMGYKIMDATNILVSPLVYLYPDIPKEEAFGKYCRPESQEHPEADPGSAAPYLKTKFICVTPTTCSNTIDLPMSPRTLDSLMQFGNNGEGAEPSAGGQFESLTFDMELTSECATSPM
Sequence of Tyrosine-protein kinase JAK1 (P23458 whole entry): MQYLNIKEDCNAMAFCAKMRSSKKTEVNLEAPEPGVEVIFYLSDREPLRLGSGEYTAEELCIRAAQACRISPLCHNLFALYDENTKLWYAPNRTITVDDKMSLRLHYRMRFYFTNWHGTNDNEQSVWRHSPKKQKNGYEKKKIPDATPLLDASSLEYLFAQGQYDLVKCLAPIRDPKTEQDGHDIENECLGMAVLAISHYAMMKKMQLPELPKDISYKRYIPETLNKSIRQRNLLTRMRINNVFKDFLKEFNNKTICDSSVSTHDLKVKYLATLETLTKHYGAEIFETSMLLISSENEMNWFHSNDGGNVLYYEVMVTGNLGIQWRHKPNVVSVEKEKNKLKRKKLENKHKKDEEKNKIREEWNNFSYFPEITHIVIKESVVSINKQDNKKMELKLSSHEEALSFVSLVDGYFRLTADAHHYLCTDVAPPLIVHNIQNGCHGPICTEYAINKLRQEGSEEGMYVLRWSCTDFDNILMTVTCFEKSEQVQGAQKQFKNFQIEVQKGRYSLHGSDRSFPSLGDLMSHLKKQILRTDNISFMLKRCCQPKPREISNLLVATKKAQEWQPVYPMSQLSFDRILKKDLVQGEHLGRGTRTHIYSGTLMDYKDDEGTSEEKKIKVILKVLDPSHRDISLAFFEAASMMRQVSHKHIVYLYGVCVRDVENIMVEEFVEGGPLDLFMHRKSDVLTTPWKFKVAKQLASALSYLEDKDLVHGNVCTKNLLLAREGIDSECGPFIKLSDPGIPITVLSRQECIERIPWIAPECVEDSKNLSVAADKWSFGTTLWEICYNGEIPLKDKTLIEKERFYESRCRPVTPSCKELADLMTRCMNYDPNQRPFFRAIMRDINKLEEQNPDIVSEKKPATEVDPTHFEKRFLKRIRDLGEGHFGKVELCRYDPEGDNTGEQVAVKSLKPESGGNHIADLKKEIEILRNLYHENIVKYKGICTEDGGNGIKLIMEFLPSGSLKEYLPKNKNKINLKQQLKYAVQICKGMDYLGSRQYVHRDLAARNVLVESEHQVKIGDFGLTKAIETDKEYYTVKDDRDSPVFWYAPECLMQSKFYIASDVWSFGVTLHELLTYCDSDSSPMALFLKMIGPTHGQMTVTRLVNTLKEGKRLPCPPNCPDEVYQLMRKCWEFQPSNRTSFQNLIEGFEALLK
Sequence of Cytochrome P450 2C9 (P11712 whole entry): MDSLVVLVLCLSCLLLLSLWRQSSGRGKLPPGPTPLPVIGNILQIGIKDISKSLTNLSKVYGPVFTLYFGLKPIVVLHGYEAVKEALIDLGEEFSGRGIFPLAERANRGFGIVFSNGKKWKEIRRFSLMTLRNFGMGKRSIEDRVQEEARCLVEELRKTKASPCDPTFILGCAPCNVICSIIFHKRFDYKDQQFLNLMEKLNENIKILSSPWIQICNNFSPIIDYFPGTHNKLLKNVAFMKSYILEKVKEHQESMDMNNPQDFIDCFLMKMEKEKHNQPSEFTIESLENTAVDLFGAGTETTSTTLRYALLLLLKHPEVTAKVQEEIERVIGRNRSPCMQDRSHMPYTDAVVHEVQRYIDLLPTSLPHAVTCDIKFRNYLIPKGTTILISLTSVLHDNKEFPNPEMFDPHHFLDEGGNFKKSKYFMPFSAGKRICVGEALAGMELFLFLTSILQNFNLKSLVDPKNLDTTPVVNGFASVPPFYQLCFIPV
Sequence of Mitogen-activated protein kinase 8 (P45983 whole entry): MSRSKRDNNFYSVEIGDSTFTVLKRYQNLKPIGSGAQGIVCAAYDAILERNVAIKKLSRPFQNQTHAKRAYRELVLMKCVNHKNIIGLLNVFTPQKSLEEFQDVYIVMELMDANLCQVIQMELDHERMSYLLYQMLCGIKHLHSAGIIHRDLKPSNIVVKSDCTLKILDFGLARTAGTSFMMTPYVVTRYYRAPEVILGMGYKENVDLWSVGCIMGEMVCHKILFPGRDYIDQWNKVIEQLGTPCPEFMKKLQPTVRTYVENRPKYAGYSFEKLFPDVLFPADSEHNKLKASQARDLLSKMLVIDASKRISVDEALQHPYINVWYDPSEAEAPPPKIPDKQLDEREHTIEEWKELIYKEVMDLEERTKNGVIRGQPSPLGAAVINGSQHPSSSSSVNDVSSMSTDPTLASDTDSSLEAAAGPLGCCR

- inhibition [1]: Active
- half-life [2]: 1.37 h
- IC50 (Cytochrome P450 2C9): > 50 µM
- IC50 [3]: > 10 µM
- MRT last at 24 h [4]: 8.1 h
- microsomal CLint [5]: 16.9 µL/min/mg
- inhibition [8]: Dde
- inhibition [10]: Tde
- IC50 [11]: > 10 µM
- inhibition [14]: Dde
- IC50 [21]: > 10 µM
- half-life [22]: 1.25 h
- Activity [23]: Active
- half-life [24]: 1.26 h
- inhibition [25]: Tde
- bioavailability [26]: 29.1%
- remaining at 1 h [27]: 60.5%
- AUC(0-inf) [28]: 34.9 µg·h/mL
- inhibition [30]: Active
Compound: COc1ccc(-c2noc(-c3cnc(Oc4ccc5cc(C(=O)N6CCN(Cc7ccc(OCC(F)(F)F)cc7)CC6)n(C)c5c4)cn3)n2)cc1
- inhibition (Mus musculus [6]): Active
- inhibition (Mus musculus [7]): Active
- Activity [9]: Non-Toxic
- Activity (BXPC-3 [12]): Active
- inhibition (CFPAC-1 [13]): Dde
- inhibition (BXPC-3 [15]): Dde
- inhibition (Mus musculus [16]): Active
- Activity [17]: Non-Toxic
- Activity [18]: Non-Toxic
- inhibition (CFPAC-1 [19]): Dde
- Activity [20]: Non-Toxic
- Activity [29]: Non-Toxic
